Test results: patent publication US5298621A, “Oligopeptide derivatives of ipoxantine endowed with immunomodulating activity and pharmaceutical compositions containing same” (Sigma-Tau Industrie Farmaceutiche Riunite S.p.A., priority 1990, dated 1994)

Assays:
[1] = tested on: plaque-forming cells (PFC) in the spleen of SRBC-immunized mice; test: Primary antibody production (Jerne test) in the spleen of SRBC immunized mice; format: in vivo
Protocol: Test 1 Assessment of the effect of ST 657 and ST 789 on the primary antibody production (Jerne test) in the spleen of SRBC (Sheep Red Blood Cells) immunized mice.
Male B6 D2 F1 mice (Charles River, Italy) aged 7-8 weeks (6 animals per group) were used. In this test, the animals were examined separately.
The compounds were administered i.p. at the doses of 2.5 and 25 mg/kg (single administration) the same day of immunization (Table 1) or, at the dose of 2.5 mg/kg/day (repeated administrations), at days -2, 0 and +2 (immunization at day 0) (Table 2).
The experimental procedure has been described by Jerne, N.K. et al, Transpl. Rev., 18, 130 (1974). In particular, the animals were immunized by i.p. administrations of a SRBC suspension (1×10^7 cells/mouse in 0.2 mL of sterile saline).
5 days following treatment, the spleens were aseptically excised from the sacrificed animals.
The concentration of the splenocytes obtained from the spleen was adjusted to 1×10^7 cells/mL. Aliquots of 0.1 mL of suspension were mixed with warm agar-Hank's (2 mL) and 10% SRBC in PBS buffer (0.2 mL), seeded in Petri dishes and incubated at 37° C. for 60 minutes (samples tested in triplicates). Following addition of complement (2 mL of guinea pig serum diluted 1:10 in Tris buffer), Petri dishes were further incubated at 37° C. for 30 minutes. In the presence of complement, the antibody-secreting cells of splenocytes extracted from the spleens of SRBC-immunized mice cause a hemolytic reaction. This reaction brings about the formation of lytic plaques in the samples.
The results obtained are expressed as follows: […]
(a) number of plaque-forming cells (PFC) out of 10^6 cells;
(b) number of plaque-forming cells in the whole spleen.
The data obtained are processed with Dunnett's test (Biostatistics in Pharmacology, vol. II, Pergamon Press) to assess the statistical significance of differences recorded between groups of treated and control animals.

rat granulocytes = test: "In vitro-ex vivo" chemotactic activity of rat granulocytes; settings: 25 mg/kg/day i.p. from day -5 to day -1, blood sample at day 0
Protocol: Test 3 Assessment of the "in vitro" and "in vitro-ex vivo" effect of ST 657 and ST 789 on the chemotactic activity of rat granulocytes.
Male Fisher-344 rats aged about 3 months were used (6-8 animals for each experimental group).
The compounds were tested "in vitro", 10 mcg/mL, and "in vitro-ex vivo" following administration of 25 mg/kg/day from day -5 to day -1 (taking of blood sample at day 0).
The experimental procedure is described by Cates, L. K. et al (1987), Modified Boyden chamber method of measuring polymorphonuclear leukocyte chemotaxis, Leukocyte Chemotaxis, Raven Press, N.Y. 67.
Blood samples were collected from animals sacrificed by decapitation. Following passage through heparinized gauze, blood was diluted (1:1) with dextran (1.5% in saline) and allowed to sediment for 90 minutes.
The concentration of the granulocytes, collected from blood via known techniques, was adjusted to 2×10^6 cells/mL in Hank's medium. They were then seeded on 3 μMillipore filters which were placed in migration chambers. […]
Microscopic examination of samples versus control allows the distance (in μm) run by the two most forward granulocytes in the framed field to be determined. Granulocyte migration is determined by calculating the mean value of 10 readings performed as a whole on two filters per sample. […]

Leukemia L 1210 cells = test: Protective effect in L 1210 Leukemia-bearing mice; format: in vivo; settings: for Dead/total / MST (mean survival time calculated by the median and the first interquartile range): 0.25 mg/kg i.p. from day +1 to day +10; for Weight control (x ± S.E.): 0.25 mg/kg/day day +1 to +10, in g (unit assumed); for number of surviving animals at the indicated day: 0.25 mg/kg/day
Protocol: Test 4 Assessement of the protective effect of ST 657 and ST 789 in tumor-bearing mice.
Male DBA/2 mice and male CD1 mice (Charles River), both aged 6 weeks, were used.
DBA/2 mice were inoculated i.p. with 1×10^5 Leukemia L 1210 cells (ATCC-American Type Culture Collection-Cell Lines & Hybridomas, 5th Ed., 1985) in 0.1 mL of Hank's medium.
The compounds were adminstered i.p. in sterile saline (0.25 mg/kg/day) from day +1 to day +10 (tumor transplantation at day 0).
Also the body weight of the animals was monitored, from day 0 to day +16 for the L 1210 leukemia-bearing mice, and from day 0 to day +21 for the S 180 sarcoma-bearing mice.
Monitoring of body weight was conducted in order to evaluate the evolution of the neoplastic process. Compounds activity was assessed as Mean Survival Time (MST).

[2] = 25 mg/kg i.p., single administration on the day of immunization
[3] = 2,5 mg/kg i.p., single administration on the day of immunization
[4] = 2,5 mg/kg/day i.p. at days -2, 0, +2 (immunization at day 0)

Compound: N=C(N)NCCC[C@H](NC(=O)OCCCCCn1cnc2c(=O)[nH]cnc21)C(=O)O [ST 789, N-5-(ipoxantin-9-yl) pentyloxycarbonylarginine, reference compound]
- PFC/10^6 cells (x and ranges of variation) [1, 2]: 339 (318-360) PFC/10^6 cells
- PFC/spleen (x and ranges of variation) [1, 2]: 58137 (54505-62010) PFC/spleen
- "in vitro-ex vivo" chemotaxis (μ ± S.E.) (rat granulocytes): 79.8 ± 1.53 μ
- Dead/total (Leukemia L 1210 cells): 9/9
- MST (mean survival time calculated by the median and the first interquartile range) (Leukemia L 1210 cells): 14.0 (14.0-15.0)
- Weight control (x ± S.E.) (Leukemia L 1210 cells; Day 0): 18.2 ± 0.3
- Weight control (x ± S.E.) (Leukemia L 1210 cells; Day 2): 18.0 ± 0.4
- Weight control (x ± S.E.) (Leukemia L 1210 cells; Day 4): 19.1 ± 0.3
- Weight control (x ± S.E.) (Leukemia L 1210 cells; Day 7): 20.1 ± 0.4
- Weight control (x ± S.E.) (Leukemia L 1210 cells; Day 9): 21.8 ± 0.4
- Weight control (x ± S.E.) (Leukemia L 1210 cells; Day 11): 24.0 ± 0.4
- number of surviving animals at the indicated day (Leukemia L 1210 cells; Day 14): 3
- Weight control (x ± S.E.) (Leukemia L 1210 cells; Day 14): 22.7 ± 0.9
- number of surviving animals at the indicated day (Leukemia L 1210 cells; Day 16): 1
- Weight control (x ± S.E.) (Leukemia L 1210 cells; Day 16): 22.5

Compound: N-5-(ipoxantin-9-yl) pentyloxycarbonyl glycyl L-aspartate disodium salt [ST 657]
- PFC/10^6 cells (x and ranges of variation) [1, 2]: 422 (403-443) PFC/10^6 cells
- PFC/spleen (x and ranges of variation) [1, 2]: 61276 (54294-63323) PFC/spleen
- PFC/10^6 cells (x and ranges of variation) [1, 3]: 393 (368-420) PFC/10^6 cells
- PFC/spleen (x and ranges of variation) [1, 3]: 62356 (59939-64871) PFC/spleen
- PFC/10^6 cells (x and ranges of variation) [1, 4]: 416 (372-465) PFC/10^6 cells
- PFC/spleen (x and ranges of variation) [1, 4]: 67195 (59781-75529) PFC/spleen
- increase of PFC number with respect to control (in words) ([1]; comparison with ST 789): more active than ST 789
- "in vitro-ex vivo" chemotaxis (μ ± S.E.) (rat granulocytes): 89.3 ± 1.95 μ
- Dead/total (Leukemia L 1210 cells): 10/10
- MST (mean survival time calculated by the median and the first interquartile range) (Leukemia L 1210 cells): 15.5 (13.0-17.0)
- Weight control (x ± S.E.) (Leukemia L 1210 cells; Day 0): 18.2 ± 0.5
- Weight control (x ± S.E.) (Leukemia L 1210 cells; Day 2): 18.2 ± 0.5
- Weight control (x ± S.E.) (Leukemia L 1210 cells; Day 4): 18.8 ± 0.5
- Weight control (x ± S.E.) (Leukemia L 1210 cells; Day 7): 20.1 ± 0.4
- Weight control (x ± S.E.) (Leukemia L 1210 cells; Day 9): 21.7 ± 0.6
- Weight control (x ± S.E.) (Leukemia L 1210 cells; Day 11): 23.9 ± 0.8
- number of surviving animals at the indicated day (Leukemia L 1210 cells; Day 14): 6
- Weight control (x ± S.E.) (Leukemia L 1210 cells; Day 14): 23.1 ± 0.6
- number of surviving animals at the indicated day (Leukemia L 1210 cells; Day 16): 3
- Weight control (x ± S.E.) (Leukemia L 1210 cells; Day 16): 22.4 ± 0.6
